{"source": "patent US10745352B2", "about": "“Dual function molecules for histone deacetylase inhibition and ataxia telangiectasia mutated activation and methods of use thereof” (Shuttle Pharmaceuticals, Inc., priority 2015, dated 2020)", "key": {"[1]": {"tested_on": "ATM", "assay": "ATM activation: phospho-ATM (S1981) ELISA on the nuclear fraction of MCF7 cells", "type": "cell-based, Human", "settings": "1 μM, time course of 6 hours", "procedure": "Several assays were utilized to determine the ability of the compounds of the invention to activate ATM over a period of time. […] The fold change in phospho-ATM was measured over a period of time. Accordingly, the increase in phospho-ATM indicates activation of ATM by the compounds of the invention.\nIn certain examples, the activity of the compounds of the invention was compared to additional modulators of ATM, such as […] (a specific ATM inhibitor); dimethylsulfoxide (DMSO) (a solvent); 3,3′-diindolylmethane (DIM) (an ATM activator); and irradiation (irradiation may result in the generation of phospho-ATM due to DNA damage). DIM was not used as a comparative compound in Example 5.\nMaterials: MCF7 Cells; Complete RPMI media: RPMI, 10% Fetal Bovine Serum (FBS), 5% L-glutamine, 5% Pen/Strep; R&D Systems Human P-ATM (S1981) DuoSet IC ELISA Assay Kit; Plate sealers; Normal mouse serum (heat inactivated 56 C for 30 min); 96-well ELISA microtiter plate; 450 nm Plate Reader; 60 mm dishes; Disposable pipettes; Pipet-aid; Pipette tips; Micro-pipetter; Cell scraper; Distilled water; Pierce NE-PER Nuclear and Cytoplasmic Extraction Reagent; Pierce Protease and Phosphotase Inhibitor Mini Tablets; KU-55933; DIM (not used in Example 5); Dimethyl sulfoxide (DMSO); Phosphate buffered saline (PBS); and Sterile micro-tubes and conical tubes; Hemocytometer; Microscope; Micro-centrifuge.\nMCF7 Cells were grown in Complete RPMI media and 10^6 cells were seeded into 60 mm dishes. Dishes were then divided into duplicate treatments the following day. Control samples were treated with 3 ml RPMI media for 1 hr. Vehicle samples were treated with 3 ml RPMI media plus 0.1% DMSO for 1 hr. Negative control samples were treated with 10 μM KU-55933 in 3 ml RPMI media plus 0.1% DMSO for 1 Hr. Positive control samples were treated with 0.5 μM DIM in 3 ml RPMI media plus 0.1% DMSO for 30 min. Test Samples were treated with 1 μM of the test compounds (e.g. N-(6-(hydroxyamino)-6-oxohexyl)-1H-indole-2-carboxamide in Example 5) in 3 ml RPMI media plus 0.1% DMSO for 30 min; 1 hr; 2 hrs; 4 hrs; and 6 hrs. At their designated time, samples were harvested on ice using a cell scraper and two washes of 1 ml PBS and kept as a cell pellet on dry ice until all were collected. After all samples were collected they were thawed on ice and separated into cytosolic and nuclear fractions using the Pierce NE-PER Nuclear and Cytoplasmic Extraction Reagent kit with added Pierce protease and phosphotase inhibitor tablet.\nAfter recovery of the separate fractions, the process further included washing cells by suspending the cell pellet with PBS. 1-10×10^6 cells were transferred to a 1.5 mL microcentrifuge tube and a pellet was formed by centrifugation at 500×g for 2-3 minutes. […]"}, "[2]": {"tested_on": "breast cancer cells (MCF7 cells)", "assay": "Clonogenic cytotoxicity assay, breast cancer cells", "type": "cell-based", "settings": "Homo sapiens, cell line not named in the sentence (FIG. 9: MCF7 and 184A1)", "procedure": "(§1) Certain compounds of the invention were tested in both an MTT cytotoxicity assay and clonogenic cytotoxicity assay against breast cancer cells (MCF7 cells) and normal breast tissue cells (184A1 cells) to determine the cytotoxic effect of such cells as a function of concentration.\n(§2) Specifically, the compounds tested included: N-(6-(hydroxyamino)-6-oxohexyl)-3-methyl-1H-indole-2-carboxamide (SP-1-161); -hydroxy-N^6-(2-(2-methyl-1H-indol-3-yl)ethyl)octanediamide (SP-1-163); (S)—N-(6-(hydroxyamino)-6-oxohexyl)-1-tosylindoline-2-carboxamide (SP-1-169); and (S)-1-((5-(dimethylamino)naphthalene-1-yl)sulfonyl)-N-(6-(hydroxyamino)-6-oxoheyl)indoline-carboxamide (SP-1-171)."}, "[3]": {"tested_on": "HPV+ CasKi cells vs normal epithelial cells (RWPE1 cells)", "assay": "MTT cytotoxicity assay, normal epithelial cells versus HPV+ cervical cancer cells", "type": "cell-based, human", "procedure": "SP-1-161 was tested in a MTT cytotoxicity assay against normal epithelial cells and human papilloma virus positive (HPV+) cancerous (CasKi) cervical cells. […] This supports the role for the compounds of the invention (e.g., SP-1-161) as treatments of HPV+ cancers and tumors."}, "[4]": {"tested_on": "breast cancer cells (MCF7 cells)", "assay": "MTT cytotoxicity assay, breast cancer cells", "type": "cell-based", "settings": "Homo sapiens, cell line not named in the sentence (FIG. 9: MCF7 and 184A1)", "procedure": "as §1, §2"}}}
{"smiles": "Cc1c(C(=O)NCCCCCC(=O)NO)[nH]c2ccccc12", "note": "[SP-1-161, N-(6-(hydroxyamino)-6-oxohexyl)-3-methyl-1H-indole-2-carboxamide]", "values": [{"measurement": "ATM activation (level of ATM phosphorylation, phospho-ATM)", "setting": "[1]", "value": "exemplary ATM activation activity"}, {"measurement": "IC50", "setting": "[2]", "value": 276, "unit": "nM"}, {"measurement": "IC50 for HPV+ CasKi cells, times lower than that for normal epithelial cells (RWPE1 cells)", "setting": "[3]", "value": 29, "unit": "times"}, {"measurement": "IC50", "setting": "[4]", "value": 416, "unit": "nM"}]}
